Test results from publication PMC4646407, “Tripartite ATP-independent Periplasmic (TRAP) Transporters Use an Arginine-mediated Selectivity Filter for High Affinity Substrate Binding” (The Journal of Biological Chemistry, 2015).

How the values were obtained:
[1] = target: T1, SiaP (SiaP-His6) (Haemophilus influenzae, UniProt P44542); experiment: intrinsic tyrosine fluorescence titration; format: binding; settings: 50 mM Tris/HCl, pH 8.0; 0.05 μM protein
T1 construct: C-terminal His6 tag; expressed in E. coli BL21(DE3) pLysS (pET21b, pAH16) with native signal peptide, purified from periplasm

[2] = target: SiaP (SiaP-His6) (Haemophilus influenzae, UniProt P44542, R170K/F193W); settings: 50 mM Tris/HCl, pH 8.0; 0.5 μM protein
[3] = target: SiaP (SiaP-His6) (Haemophilus influenzae, UniProt P44542, F193W); settings: 50 mM Tris/HCl, pH 8.0
SiaP (SiaP-His6) (Haemophilus influenzae, UniProt P44542, F193W), sequence (P44542 24-329 F193W): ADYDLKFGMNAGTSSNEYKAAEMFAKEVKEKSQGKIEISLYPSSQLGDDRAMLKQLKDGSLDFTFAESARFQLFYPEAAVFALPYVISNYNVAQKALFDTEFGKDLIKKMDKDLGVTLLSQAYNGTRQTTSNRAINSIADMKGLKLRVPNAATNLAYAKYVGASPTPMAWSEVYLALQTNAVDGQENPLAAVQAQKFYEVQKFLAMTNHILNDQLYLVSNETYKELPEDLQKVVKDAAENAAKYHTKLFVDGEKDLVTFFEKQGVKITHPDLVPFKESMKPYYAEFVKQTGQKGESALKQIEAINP

T1 sequence (P44542 24-329): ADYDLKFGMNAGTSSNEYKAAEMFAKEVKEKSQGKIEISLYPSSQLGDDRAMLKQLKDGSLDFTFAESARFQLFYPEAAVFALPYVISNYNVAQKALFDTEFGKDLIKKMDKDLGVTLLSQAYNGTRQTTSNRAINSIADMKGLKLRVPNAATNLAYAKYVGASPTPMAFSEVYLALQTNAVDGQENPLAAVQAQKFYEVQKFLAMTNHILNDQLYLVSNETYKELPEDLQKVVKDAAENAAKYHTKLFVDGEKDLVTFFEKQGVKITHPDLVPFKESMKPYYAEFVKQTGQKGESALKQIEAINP
SiaP (SiaP-His6) (Haemophilus influenzae, UniProt P44542, R170K/F193W), sequence (P44542 24-329 R170K/F193W): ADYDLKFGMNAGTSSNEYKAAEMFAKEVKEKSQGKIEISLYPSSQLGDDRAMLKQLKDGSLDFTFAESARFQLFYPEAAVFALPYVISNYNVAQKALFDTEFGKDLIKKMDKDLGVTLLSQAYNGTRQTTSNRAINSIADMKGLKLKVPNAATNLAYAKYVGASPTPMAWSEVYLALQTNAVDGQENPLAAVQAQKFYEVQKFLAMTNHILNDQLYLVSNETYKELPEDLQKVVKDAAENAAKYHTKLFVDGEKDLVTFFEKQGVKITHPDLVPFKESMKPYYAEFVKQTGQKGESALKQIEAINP

`CC(=O)N[C@H]1[C@H]([C@H](O)[C@H](O)CO)OC(O)(C(=O)O)C[C@@H]1O` (stereo partly drawn) [Neu5Ac] was tested, and the Kd [1] was 0.14 ± 0.04 µM, the Kd [2] was 38700 ± 8300 µM and the Kd [3] was 1.21 ± 0.03 µM.
